Reference: US7070768B2, “Method for imparting artificial tan to human skin” (Allergan, Inc., priority 2003, dated 2006)

How the values were obtained:
human skin = assay: Oral bimatoprost tablets in a patient, skin color; assay type: in vivo; details: oral tablet, 2 x 100 mg per dose, 3 doses per day, four months
Source text: A patient began taking bimatoprost as a tablet.

eyelashes = details: Lumigan ophthalmic solution, applied in the FDA approved manner; cited from earlier work

What does the source list for “cyclopentane N-ethyl heptanamide-5-cis-2-(3α-hydroxy-5-phenyl-1-trans-pentenyl)-3,5-dihydroxy, [bimatoprost, cyclopentane N-ethyl heptanamide-5-cis-2-(3α-hydroxy-5-phenyl-1-trans-pentenyl)-3,5-dihydroxy, [1α,2β,3α,5α]]”?
skin color after treatment (human skin): turned to a dark brown color; growth of eyelashes (eyelashes): effective to increase the growth of eyelashes
